Values joined by “and” are separate entries in the source; they are usually repeats but may differ in a detail not shown here. Equal values may be shown once.
Key:
RAW264.7 cells = assay: In vitro cytotoxicity assay (MTT); assay type: cell-based, mouse; settings: RAW264.7, MTT
Description: MTT assay was used to determine cell viability. RAW264.7 cells in the logarithmic growth phase were cultured in 96-well plates with 6 × 10^3 cells in each well and incubated for 24 h. The surviving cells were then determined by MTT method. […] Cell growth inhibition ratio was calculated as follows: Cellgrowthinhibitionratio%=ODvehicle−ODtreaed/ODvehicle×100%
Cell cytotoxicity CC50 value were conducted by using Nonlinear regression (curve fit) analytic procedure in GraphPad Prism 8.

[1] = tested on: sRANKL induced osteoclast differentiation; assay: In vitro anti-osteoclastogenesis activity determination (TRAP staining); assay type: cell-based, mouse; parameters: key to inhibition of osteoclastogenesis, dose-response (fig. S2a): % inhibition = 100 − (treated−unstimulated)/(untreated−unstimulated)×100; settings: for inhibition of osteoclastogenesis, dose-response (fig. S2a): three replicate columns; for IC50: BMMs, M-CSF + 100 ng/mL sRANKL, 5 days, TRAP staining, read-out: OC IC50 (anti-osteoclastogenesis activity)
Description: Mouse osteoclasts were cultured according to the previously reported protocols. BMMs were plated in 96-well plates at a density of 6 × 10^3 cells/well with complete medium containing 10 ng/mL M-CSF. The following day, cells were then stimulated with 100 ng/mL sRANKL in the presence or absence of compounds with different concentrations every 2 days until osteoclasts formed. In order to calculate IC50, we set 9 concentrations for each compound and untreated and non-sRANKL unstimulating group as controls, each with triplicated repeated wells. After 5 days, cells were fixed with 4% paraformaldehyde and then applied TRAP-staining to identify osteoclasts by using the TRAP-staining kit. Osteoclasts number (OC No.) in each well was counted and the percentage of inhibition ratio was calculated as follows:1 OCinhibitoryratio%=100−OCNo.treated−OCNo.unstimulating/OCNo.untreated−OCNo.unstimulating×100%
The dosages and their correspondent osteoclastogenesis inhibitory activity curve and IC50 value were conducted by using Nonlinear regression (curve fit) analytic procedure in GraphPad Prism 8. Photographs of individual wells were taken using Leica microscope.

sRANKL = target: T1, sRANKL (Rattus norvegicus, UniProt Q9ESE2, D175N); assay: Surface plasmon resonance (SPR) assay; assay type: binding; settings: immobilized sRANKL, 25 °C
T1 construct: (1) sRANKL (rat 159-318 aa); His6-sumo (N, cleaved yes); made in house; host or cells: Escherichia coli BL21 (DE3)
T1 sequence (Q9ESE2 159-318 D175N): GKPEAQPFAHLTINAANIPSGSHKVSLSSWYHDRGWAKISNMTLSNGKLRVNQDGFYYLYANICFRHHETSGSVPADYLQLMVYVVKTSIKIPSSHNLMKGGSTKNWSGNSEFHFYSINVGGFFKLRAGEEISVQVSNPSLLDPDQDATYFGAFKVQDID
Description: A ProteOn XPR36TM SPR instrument (BioRad Hercules, CA) was used for carrying out SPR assays. sRANKL protein in PBS buffer, pH 7.4, was diluted to 20 nM in 10 mM sodium acetate buffer, pH 5.5 and immobilized in parallelflow channels of a the EDAC/Sulfo-NHS activated surface of a GLH biosensor chip (Bio-Rad) with an amine coupling kit (Bio-Rad). The surface was blocked with 1 M ethanolamine. The final immobilization level for sRANKL was approximately 14,000 RU. A blank immobilization channel in the same GLH biosensor chip was also activated with EDAC/Sulfo-NHS and blocked with 1 M ethanolamine to use as a reference.
Biosensor binding experiments were conducted in filtered and degassed running buffer (PBS containing 0.005% Tween-20, pH 7.4) at 25 °C. Compounds was dissolved in 100% DMSO in appropriate different series concentrations of stock solutions. Before detecting, compounds were diluted in six or five concentrations with running buffer and ensured that the content of DMSO contained in each detected concentration was consistent. Compounds in different concentrations were injected simultaneously at a flow rate at […] for 180 s and 120 s for the association phase, followed by 180 s for the disassociation. Following the compound injection, the chip surface was regenerated with 40 s pulses of 0.85% H3PO4 and running buffer.
ProtedOn Manager 2.0. was used for data analysis. Each set of sensorgrams was globally analyzed using the 1:1 Langmuir binding model to obtain the kinetic rate constants (Kon and Koff). Global kinetic rate constants (ka and kd) were derived for each reaction, and the equilibrium dissociation constant, KD, was calculated using the equation KD = kd/ka.

| Kd (sRANKL) [µM] | Structure (SMILES) | CC50 (RAW264.7 cells) [µM] | inhibition of osteoclastogenesis, dose-response (fig. S2a) ([1]; conc. 0.0023464 μM) | inhibition of osteoclastogenesis, dose-response (fig. S2a) ([1]; conc. 0.00774313 μM) | inhibition of osteoclastogenesis, dose-response (fig. S2a) ([1]; conc. 0.0255523 μM) | inhibition of osteoclastogenesis, dose-response (fig. S2a) ([1]; conc. 0.0843226 μM) | inhibition of osteoclastogenesis, dose-response (fig. S2a) ([1]; conc. 0.278265 μM) | inhibition of osteoclastogenesis, dose-response (fig. S2a) ([1]; conc. 0.918274 μM) | inhibition of osteoclastogenesis, dose-response (fig. S2a) ([1]; conc. 3.0303 μM) | inhibition of osteoclastogenesis, dose-response (fig. S2a) ([1]; conc. 10 μM) | inhibition of osteoclastogenesis, dose-response (fig. S2a) ([1]; conc. 33 μM) | IC50 [1] |
| --- | --- | --- | --- | --- | --- | --- | --- | --- | --- | --- | --- | --- |
| 211 | CC(=O)C(=NNc1ccccc1C(=O)O)C(=O)Nc1nc(C)c(C(=O)O)s1 [S3-01] | 62.3 | 5.532 (2×) and 2.66 | 13.1915 and 15.7447 and 16.7021 | 9.043 and 12.234 and 13.5106 | 12.234 and 16.7021 and 15.1064 | 42.234 and 40.3192 and 42.5532 | 61.7021 and 57.234 and 62.3404 | 74.1489 and 77.0213 and 79.8936 | 99.3617 (2×) and 99.0426 | 100 |  |
| 38 | CCOC(=O)c1sc(NC(=O)C(=NNc2ccc(C(=O)O)cc2)C(C)=O)nc1C [S3-02] | 41.9 | 0.3058 and -2.446 and -0.3058 | 12.2324 and 9.48 and 14.6789 | 19.5719 and 20.7951 and 20.4893 | 19.5719 and 21.7125 and 20.1835 | 22.9358 and 29.3578 (2×) | 32.1101 and 33.9449 and 35.474 | 59.0214 and 60.5505 and 61.1621 | 81.6514 and 80.7339 and 87.7676 | 100 | 1.24 µM and > 1 µM |
|  | CC(C)OC(=O)C(=NNc1ccccc1C(=O)O)C(=O)Nc1ccccn1 [S3-15-4] | 57.2 | 19.4737 and 18.6842 and 17.1053 | 16.7105 and 16.3158 and 13.9474 | 17.8947 and 11.579 and 18.2895 | 16.7105 and 20.2632 and 17.8947 | 34.8684 and 32.5 and 38.8158 | 53.8158 and 43.9474 and 58.5526 | 73.9474 and 71.9737 and 70.3947 | 88.5526 and 83.421 and 86.579 | 100 | 0.62 µM |
|  | CC(=O)C(=NNc1ccccc1C(=O)O)C(=O)Nc1nc2ccccc2s1 [S3-16] | 69.2 |  | 3.543 and 4.724 and 0.7874 | 9.449 and 8.661 (2×) | 16.9291 and 24.4094 and 12.9921 | 30.315 and 29.5276 and 31.1024 | 51.1811 and 52.7559 and 54.7244 | 73.2284 and 71.6535 and 75.1968 | 82.6772 and 95.2756 and 99.2126 | 100 | 0.73 µM |
|  | CC(=O)C(=NNc1ccccc1C(=O)O)C(=O)N1CCc2ccccc2C1 [S3-17] | 82.1 | 4.167 and -4.167 and 1.19 | 7.7381 and 11.9048 and 8.036 | 13.9881 and 14.2857 and 19.3452 | 22.9167 and 21.7262 and 26.4881 | 30.3571 and 29.4643 and 30.6548 | 35.1191 and 33.0357 and 33.6309 | 38.6905 and 40.1786 and 34.5238 | 50.8929 and 50 and 48.8095 | 63.3929 and 63.6905 and 75.5952 | 6.74 µM |
